Test results from ChEMBL document CHEMBL5579854, “Targeting Relevant HDACs to Support the Survival of Cone Photoreceptors in Inherited Retinal Diseases: Identification of a Potent Pharmacological Tool with In Vitro and In Vivo Efficacy” (J Med Chem, 2024).
The source made the active and inactive calls. No cut-off for these calls is given here.

What was measured:
Cytochrome P450 1A = target: T1, Cytochrome P450 1A (Homo sapiens, UniProt P04798+P05177); assay: Inhibition of CYP1A in human liver microsomes using ECOD at 1 to 50 uM measured upto 30 mins by fluorescence based assay; assay type: ADME, Microsome; settings: 0.5 h, dose 1-50 µM
T1 sequence (P04798 whole entry): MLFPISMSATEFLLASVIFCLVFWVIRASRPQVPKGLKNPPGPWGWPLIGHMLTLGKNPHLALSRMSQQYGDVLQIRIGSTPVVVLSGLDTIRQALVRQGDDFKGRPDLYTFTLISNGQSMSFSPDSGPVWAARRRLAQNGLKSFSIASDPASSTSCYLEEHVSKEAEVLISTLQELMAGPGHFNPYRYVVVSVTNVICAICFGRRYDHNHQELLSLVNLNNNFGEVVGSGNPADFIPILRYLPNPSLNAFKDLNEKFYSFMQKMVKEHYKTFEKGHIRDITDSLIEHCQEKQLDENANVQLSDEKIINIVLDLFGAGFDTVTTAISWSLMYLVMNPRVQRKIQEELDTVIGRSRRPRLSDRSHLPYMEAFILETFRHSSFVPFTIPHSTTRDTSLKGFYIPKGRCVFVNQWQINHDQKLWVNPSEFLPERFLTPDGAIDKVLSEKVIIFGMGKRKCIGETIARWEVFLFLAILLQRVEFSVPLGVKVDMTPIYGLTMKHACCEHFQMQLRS
T1 sequence (P05177 whole entry): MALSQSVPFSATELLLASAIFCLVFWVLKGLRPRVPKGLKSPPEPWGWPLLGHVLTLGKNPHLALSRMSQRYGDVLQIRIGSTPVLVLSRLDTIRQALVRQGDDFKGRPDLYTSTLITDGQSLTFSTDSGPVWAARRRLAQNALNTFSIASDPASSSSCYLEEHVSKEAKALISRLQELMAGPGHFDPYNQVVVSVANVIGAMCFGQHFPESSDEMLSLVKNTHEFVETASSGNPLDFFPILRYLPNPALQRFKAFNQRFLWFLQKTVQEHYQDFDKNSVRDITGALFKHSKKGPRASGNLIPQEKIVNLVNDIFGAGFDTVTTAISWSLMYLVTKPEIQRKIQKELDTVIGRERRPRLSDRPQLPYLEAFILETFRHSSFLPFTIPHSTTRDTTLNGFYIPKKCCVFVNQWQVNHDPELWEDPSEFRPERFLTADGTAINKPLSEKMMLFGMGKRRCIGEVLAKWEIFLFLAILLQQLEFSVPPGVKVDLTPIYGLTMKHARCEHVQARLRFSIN

661W = assay: Cytoprotective effect against H2O2-induced oxidative stress in mouse 661W cells assessed as increase in acetylated alpha-tubulin level at 10 to 30 uM incubated for 24 hrs followed by H2O2 treatment for 3 hrs by immunofluorescence analysis; assay type: functional, cell-based; settings: dose 10-30 µM, time 27.0 hrs

In the case of `O=C(NO)c1ccc(CNC(=O)N2CCc3c(c4ccccc4n3Cc3ccccc3)C2)cc1`, the “inhibition (INH)” value (Cytochrome P450 1A) is reported as “Not Active” and the Activity (661W) is reported as “Active”.
